# Ends that are not written are not given here. Peptide text beside a SMILES is read from it. * marks the point of attachment. Desaminotyrosyl = O=C(CCc1ccc(O)cc1)*
# Target: T1, Herpes Simplex Virus Ribonucleotide Reductase (Human herpesvirus 2, UniProt P89462)
# T1 construct: HSV RR was purified from Baby Hamster Kidney cells that were cultured with HSV2 Strain 186; made in house; host or cells: Baby Hamster Kidney cells infected with HSV2 Strain 186
# Assay: Assay of Inhibition of HSV RR Activity (reduction of tritiated cytidine-diphosphate)
# Type: biochemical, HSV2 Strain 186
# Conditions: 30 minutes at 37°C, dithiothreitol and MgCl2, enzyme not preincubated with inhibitor; read-out: IC50 (μM concentration of peptide producing 50% inhibition of enzyme activity)
# Description: After infection, cells were harvested and lysed. Crude HSV RR was prepared as described by Huszar et al., J. Virol.
# HSV RR activity was determined as the ability of the enzyme to catalyze the reduction of tritiated cytidine-diphosphate to deoxyribo-cytidinediphosphate in 30 minutes at 37°C. in the presence of dithiothreitol and MgCl2. Activity of oligopeptide inhibitors was determined by adding them to the reaction mix at the beginning of the incubation. Enzyme was not preincubated with inhibitor.
# These were analyzed for amino acid composition and in some cases sequenced. Dry peptides were resuspended in 100 mM HEPES (pH 8.0) at about 2mM, relyophilized, and stored in aliquots at -80° C. Immediately prior to use they were rehydrated with distilled H2 O and centrifuged to remove any undissolved peptide.
# T1 sequence (P89462 whole entry): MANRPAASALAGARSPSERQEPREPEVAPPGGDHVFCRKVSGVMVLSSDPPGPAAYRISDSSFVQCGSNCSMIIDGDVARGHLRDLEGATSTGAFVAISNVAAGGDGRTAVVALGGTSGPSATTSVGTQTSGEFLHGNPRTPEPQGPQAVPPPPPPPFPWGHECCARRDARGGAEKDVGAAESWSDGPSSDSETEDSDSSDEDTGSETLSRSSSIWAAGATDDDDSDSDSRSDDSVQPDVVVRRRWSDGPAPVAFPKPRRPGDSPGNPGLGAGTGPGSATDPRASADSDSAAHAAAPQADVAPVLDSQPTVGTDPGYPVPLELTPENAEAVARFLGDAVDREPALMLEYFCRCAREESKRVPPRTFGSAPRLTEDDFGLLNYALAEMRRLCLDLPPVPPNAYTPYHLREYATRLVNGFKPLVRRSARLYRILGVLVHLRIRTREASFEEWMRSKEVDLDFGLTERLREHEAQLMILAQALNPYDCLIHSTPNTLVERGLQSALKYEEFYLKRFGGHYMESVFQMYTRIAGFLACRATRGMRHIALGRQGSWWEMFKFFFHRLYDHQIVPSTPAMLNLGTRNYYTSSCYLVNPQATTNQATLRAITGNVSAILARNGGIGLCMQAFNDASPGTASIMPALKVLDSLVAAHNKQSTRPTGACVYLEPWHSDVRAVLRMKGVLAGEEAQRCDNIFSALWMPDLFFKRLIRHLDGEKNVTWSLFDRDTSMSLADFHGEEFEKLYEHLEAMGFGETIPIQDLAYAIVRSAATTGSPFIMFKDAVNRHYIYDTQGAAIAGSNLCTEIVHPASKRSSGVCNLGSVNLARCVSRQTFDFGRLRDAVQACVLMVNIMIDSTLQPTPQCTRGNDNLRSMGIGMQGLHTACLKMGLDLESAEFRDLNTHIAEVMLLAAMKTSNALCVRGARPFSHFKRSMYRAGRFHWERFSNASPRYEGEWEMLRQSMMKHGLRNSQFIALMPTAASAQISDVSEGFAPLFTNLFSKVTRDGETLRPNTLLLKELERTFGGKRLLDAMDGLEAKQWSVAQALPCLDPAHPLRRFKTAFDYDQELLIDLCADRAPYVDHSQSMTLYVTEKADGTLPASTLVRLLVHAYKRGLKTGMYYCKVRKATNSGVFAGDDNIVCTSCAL
row,Compound,IC50 [µM]
1,STSYAGAVVNDL [STSYAGAVVNDL],17
2,"CC(C)C[C@H](NC(=O)[C@H](CC(=O)O)NC(=O)[C@H](CC(N)=O)NC(=O)[C@@H](NC(=O)[C@@H](NC(=O)[C@H](C)NC(=O)CNC(=O)[C@H](C)NC(=O)[C@@H](N)Cc1ccc(O)cc1)C(C)C)C(C)C)C(N)=O [YAGAVVNDL--NH2, YAGAVVNDL-NH2]",75
3,Ac-GAVVNDL [AcGAVVNDL],75
4,AVVNDL [AVVNDL],51
5,CC(=O)N[C@@H](Cc1ccc(O)cc1)C(=O)N[C@@H](C)C(=O)NCC(=O)N[C@@H](C)C(=O)N[C@H](C(=O)N[C@H](C(=O)N[C@@H](CC(N)=O)C(=O)N[C@@H](CC(=O)O)C(=O)N[C@@H](CC(C)C)C(=O)O)C(C)C)C(C)C [AcYAGAVVNDL],5
6,"CC(C)C[C@H](NC(=O)[C@H](CC(=O)O)NC(=O)[C@H](CC(N)=O)NC(=O)[C@@H](NC(=O)[C@@H](NC(=O)[C@H](C)NC(=O)CNC(=O)[C@H](C)NC(=O)CCc1ccc(O)cc1)C(C)C)C(C)C)C(=O)O [desNH2--YAGAVVNDL, desNH2-YAGAVVNDL] (Desaminotyrosyl-AGAVVNDL-OH)",20
7,AGAVVNDL [AGAVVNDL],80
8,Ac-AVVNDL [AcAVVNDL],87
9,GAVVNDL [GAVVNDL],70
10,TSYAGAVVNDL [TSYAGAVVNDL],17
11,SYAGAVVNDL [SYAGAVVNDL],17
12,"CC(C)C[C@H](NC(=O)[C@H](CC(=O)O)NC(=O)[C@H](CC(N)=O)NC(=O)[C@@H](NC(=O)[C@@H](N)C(C)C)C(C)C)C(=O)O [VVNDL, Val Val Asn Asp Leu]",250
13,FPLSLMSTDKHTNFFECRSTSYAGAVVNDL,8
14,"CC(C)C[C@H](NC(=O)[C@H](CC(=O)O)NC(=O)[C@H](CC(N)=O)NC(=O)[C@@H](NC(=O)[C@@H](NC(=O)[C@H](C)NC(=O)CNC(=O)[C@H](C)NC(=O)[C@@H](N)Cc1ccc(O)cc1)C(C)C)C(C)C)C(=O)O [YAGAVVNDL, Tyr Ala Gly Ala Val Val Asn Asp Leu, reference compound]",10

# Target: ribonucleotide reductase enzyme of herpes simplex virus (Human herpesvirus 1, UniProt P08543)
# Assay: not given
# Conditions: Nature 321:439-441 and 441-443 (1986); cited from earlier work
# Sequence of ribonucleotide reductase enzyme of herpes simplex virus (P08543 whole entry): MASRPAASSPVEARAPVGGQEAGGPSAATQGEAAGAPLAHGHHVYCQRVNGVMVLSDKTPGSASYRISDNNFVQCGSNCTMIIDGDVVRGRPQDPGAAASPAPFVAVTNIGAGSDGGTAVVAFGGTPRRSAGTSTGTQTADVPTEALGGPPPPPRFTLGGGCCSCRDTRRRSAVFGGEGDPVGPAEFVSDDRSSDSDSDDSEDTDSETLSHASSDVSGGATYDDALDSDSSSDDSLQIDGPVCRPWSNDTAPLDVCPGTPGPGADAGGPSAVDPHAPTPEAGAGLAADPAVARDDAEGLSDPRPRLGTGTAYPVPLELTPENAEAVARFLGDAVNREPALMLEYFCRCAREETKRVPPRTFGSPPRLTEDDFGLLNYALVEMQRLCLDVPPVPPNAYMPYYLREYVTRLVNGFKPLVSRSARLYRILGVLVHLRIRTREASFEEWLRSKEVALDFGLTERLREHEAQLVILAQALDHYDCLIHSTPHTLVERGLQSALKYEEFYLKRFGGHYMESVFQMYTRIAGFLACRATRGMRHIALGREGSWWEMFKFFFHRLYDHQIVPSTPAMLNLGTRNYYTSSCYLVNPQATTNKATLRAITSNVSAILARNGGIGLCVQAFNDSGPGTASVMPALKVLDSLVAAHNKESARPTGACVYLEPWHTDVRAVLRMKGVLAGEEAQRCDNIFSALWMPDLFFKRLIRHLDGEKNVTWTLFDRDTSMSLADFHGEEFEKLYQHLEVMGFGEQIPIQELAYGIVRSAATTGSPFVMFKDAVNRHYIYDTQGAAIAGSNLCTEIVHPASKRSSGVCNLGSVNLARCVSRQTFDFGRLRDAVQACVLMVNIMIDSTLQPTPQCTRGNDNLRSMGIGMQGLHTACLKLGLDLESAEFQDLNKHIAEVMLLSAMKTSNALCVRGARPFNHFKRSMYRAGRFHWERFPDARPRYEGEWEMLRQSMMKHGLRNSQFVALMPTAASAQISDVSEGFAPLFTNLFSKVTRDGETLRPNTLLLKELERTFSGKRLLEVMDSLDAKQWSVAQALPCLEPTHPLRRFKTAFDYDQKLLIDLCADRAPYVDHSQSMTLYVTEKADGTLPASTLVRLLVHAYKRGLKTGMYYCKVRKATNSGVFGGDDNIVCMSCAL
row,Compound,inhibition of the activity of the enzyme in vitro
1,Tyr GVly Ala Val Val Asn Asp Leu,inhibited

# — patent US4845195A, “Inhibitor of ribonucleotide reductase” (Merck & Co., Inc., priority 1987, dated 1989)
